Here are results for 4 compounds from US20210000966A1, “HSP90-TARGETING CONJUGATES AND FORMULATIONS THEREOF” (TARVEDA THERAPEUTICS, INC., priority 2017, published 2021).

One data set relates to ERK1/2. Briefly: ERK1/2 inhibiting activity (FIG. 8B). The data set is classed as biochemical. Conditions: in words. From the text:
(§1) The activity of the respective payload is blocked until the linker moiety gets cleaved in the tumor and releases active unblocked payload. Through the HSP90 platform, toxicity is mitigated by masking the payload's active site until it can be delivered to the tumor.
(§2) FIG. 8A compares the activity of Conjugate 45 and its payload (talazoparib). FIG. 8B compares the activity of Conjugate 46 and its payload (ulixertinib). FIG. 8C compares the activity of Conjugate 47 and its payload TAK-733. The data further support that attaching a payload to a HSP90 binding ligand blocks the target activity of the payload. The HSP90 bindings of the HSP90 ligands are not affected.

The subject of another data set is MEK. Briefly: MEK activity (FIG. 8C). It counts as biochemical. Conditions: in words.
From the text: as §1, §2

The test system of another data set is human total EbB2/Her2. The experiment in a line: HER2 degradation assay (ELISA) in BT474 cells. The data set is classed as cell-based. The settings on record: BT-474, 16 hrs, read-out: Her2 Degradation IC50 Abs IC50. On the procedure:
BT474 (breast cancer) cells were plated at 12,000 cells per well and incubated for 20-24 hrs at 37° C. at 5% CO2. Post cell incubation, compounds were reconstituted in DMSO to a stock concentration of 5 mM. A compound plate was then prepared containing a 10 point dilution in DMSO. 2 uL of these dilutions were then added to the cells for a final working concentration of 5 uM to 0.0003 uM. Compounds and cells were incubated for 16 hrs. Media was then removed, cells washed, lysed, and analyzed for human total EbB2/Her2 levels by ELISA.
For orientation: In an ELISA, binding on a coated surface is turned into a signal by an enzyme label.

The next data set has as its system NCI-H460 cells. The experiment in a line: NCI-H460 tumor cell cytotoxicity assay (CellTiter-Glo). It counts as cell-based. Conditions: Homo sapiens, NCI-H460, 48 h. The method, then: NCI-H460 cells (non-small cell lung cancer) were plated at 500 cells per well and incubated for 20-24 hrs at 37° C. at 5% CO2. Post cell incubation, compounds were reconstituted in DMSO to a stock concentration of 200 uM. A compound plate was then prepared containing a 10 point dilution in RPMI+10% FBS+0.25% DMSO. 5 uL of the dilution was then added for a final working concentration range of 10 uM to 0.0005 uM. Compounds and cells were then incubated for 48 hrs. Cells were then analyzed by CellTiter-Glo for ATP levels and percent inhibition calculated.
In general terms: ATP-based viability assays read luminescence as a measure of living cells.

Data set [1] relates to H1975 cells (non-small cell lung cancer) xenograft. The experiment in a line: H1975 xenograft study. It counts as in vivo, mice. The settings on record: 12.5 mg/kg twice a week intravenously, Day 19, compared to vehicle control. The method, then:
Female athymic nude mice were implanted with 5×10^6 H1975 cells (non-small cell lung cancer) per mouse in the right hind flank. Once tumors reached a volume of 50 mm^3 to 150 mm^3 they were randomized into two groups of ten to obtain a group average starting tumor volume of 114.4 mm^3. Mice were then treated with either a vehicle control or 12.5 mg/kg of Conjugate 38. All dosing was carried out twice a week intravenously for three weeks, with five total doses being administered. Tumor volumes of the mice were measured. Final study measurements were taken on Day 19, at which point the study was terminated due to vehicle control tumor volumes approaching IACUC limits.

A further data set in a line: H460 mouse tumor PK. It counts as in vivo, mice. Conditions: for concentration at 96 h / concentration at 144 h: mouse, in vivo, 25 mg/kg, 25 mg/kg IV, read-out: Conjugate 38 Conc. in H460 Mouse Tumor. On the procedure:
Conjugate and unconjugated payload accumulation at 96 and 144 h in H460 tumor-bearing mice. Conjugate 38 was dosed at 25 mg/kg intravenously.

The test system of data set [2] is H460 lung cancer xenograft. The experiment in a line: H460 lung cancer xenograft model. The data set is classed as in vivo, mice. Conditions: FIG. 2, in words.
For data set [3], the system named is LS174t colon tumor xenograft. Briefly: LS174t colon tumor xenograft model, efficacy. It counts as in vivo, mice. The settings on record: FIG. 3A, in words.
The format of data set [4] is in vivo, mice. The settings on record: LS174t xenograft, FIG. 4. On the procedure: Accumulation and retention of Conjugate 38 was tested in this tumor xenograft model.
For the next data set, the system named is pAKT (S473). Briefly: LS174t tumor xenograft, pharmacodynamic response. The data set is classed as in vivo, mice. The settings on record: through the course of 48 h, FIG. 5, in words.
For data set [5], the system named is SKOV3 (ovarian cancer) tumor xenograft. Briefly: SKOV3 ovarian cancer xenograft. It counts as in vivo, mice. Conditions: Conjugate 38 IV 25 mg/kg vs Copanlisib 6 mg/kg, FIG. 3B. On the procedure:
(§3) PIK3A mutations occur in about 15% to 30% of breast, endometrial and colon cancers. In additional to LS174t model, other xenograft models harboring common PIK3CA mutations were chosen for testing. In one study, mice bearing SKOV3 (ovarian cancer) tumor xenograft were treated with IV dose of Conjugate 38 at 25 mg/kg and Copanlisib at 6 mg/kg. Doses were selected based on the maximum tolerated dose. In another study, mice bearing BT474 (breast cancer) tumor xenograft were treated with IV dose of Conjugate 38 at 25 mg/kg and Copanlisib at 6 mg/kg.

Data set [6] relates to BT474 (breast cancer) tumor xenograft. Briefly: BT474 breast cancer xenograft. It counts as in vivo, mice. The settings on record: Conjugate 38 IV 25 mg/kg vs Copanlisib 6 mg/kg, FIG. 3C. On the procedure:
as §3

Another data set has as its system PI3K. The experiment in a line: Cell free PI3K enzyme assay. It counts as biochemical. Conditions: FIG. 6, in words. From the text:
Therefore, conjugating a PI3K enzyme inhibitor payload to a HSP90 targeting ligand masked the PI3K enzyme inhibition.

Data set [7] in a line: Glucose levels post dosing in mice. Conditions: FIG. 7, in words. The data set is classed as in vivo. From the text: In an in vivo study in mice, glucose levels were monitored post PI3K inhibitor (Copanlisib) and Conjugate 38 dosing. […] Therefore, conjugating a PI3K enzyme inhibitor payload to a HSP90 targeting ligand reduced the normal tissue activity of glucose increase in mice.

Data set [8] can be described thus: Caco-2 cell monolayer permeability assay. It counts as in vitro ADME, human. The settings on record: human. From the text: (§4) In order to test the ability of the payloads and/or conjugates to enter cells, a cell monolayer assay was utilized employing Caco-2 cells (a human epithelial colorectal adenocarcinoma cell line).
(§5) Experimental Procedure: Caco-2 cells grown in tissue culture flasks are trypsinized, suspended in medium, and the suspensions were applied to wells of a Millipore 96 well Caco-2 plate. The cells are allowed to grow and differentiate for three weeks, feeding at 2-day intervals. For Apical to Basolateral (A→B) permeability, the test agent is added to the apical (A) side and amount of permeation is determined on the basolateral (B) side; for Basolateral to Apical (B→A) permeability, the test agent is added to the B side and the amount of permeation is determine on the A side.
(Caco-2 cells form a polarised layer with tight junctions and transporters.)

The next data set deals with Caco-2 cells. The experiment in a line: Caco-2 cell monolayer permeability assay. The data set is classed as in vitro ADME, human. The settings on record: Caco-2.
From the text: as §4, §5

Each structure is given as a SMILES string. pIC50: −log10 of the molar value. Where two headings read alike, the source gives them in different places.

With `CCNC(=O)c1nnc(-c2cc(C(C)C)c(O)cc2O)n1-c1ccc(CN2CCC(C(=O)N3CCC(C(=O)OC[C@@H](NC(=O)c4cc(-c5cc(NC(C)C)ncc5Cl)c[nH]4)c4cccc(Cl)c4)CC3)CC2)c(F)c1` [Conjugate 46], in the data set on ERK1/2, the “ERK1/2 inhibiting activity compared with payload (ulixertinib)” value was “lower than its payload”.
Consider `CCNC(=O)c1nnc(-c2cc(C(C)C)c(O)cc2O)n1-c1ccc(N(C)C2CCN(C(=O)CCC(=O)OC[C@H](O)Cn3cnc4c(c(Nc5ccc(I)cc5F)c(F)c(=O)n4C)c3=O)CC2)cc1` [Conjugate 47], for which the “MEK activity compared with payload TAK-733” value in the data set with MEK is recorded as “lower than its payload”.
As to `CCNC(=O)c1nnc(-c2cc(C(C)C)c(O)cc2O)n1-c1ccc(CN2CCN(C(=O)Cc3ccc(OC(=O)N4CCN(CCCOc5ccc6c(c5OC)N=C(NC(=O)c5cnc(N)nc5)N5CCN=C65)CC4)cc3)CC2)cc1` [Compound 38], the pIC50 in the data set on human total EbB2/Her2 was 7.41; with NCI-H460 cells (n = 1, read-out: H460 in vitro cytotoxicity) it was 8.09; in the data set with NCI-H460 cells (n = 2, read-out: H460 in vitro cytotoxicity), 8.13. In data set [1], this compound yielded a tumor growth inhibition of 70.8%. The “accumulation and retention in xenograft tumor tissue” value in the data set “H460 mouse tumor PK” (H460 tumor-bearing mice, in words) was “accumulated and was retained in xenograph tumor tissue”. Further, the concentration at 96 h in the data set “H460 mouse tumor PK” (Animal ID 1) is 6.2 µM; in the data set “H460 mouse tumor PK” (Animal ID 2) it was 7.6 µM; in the data set “H460 mouse tumor PK” (Animal ID 3) it was 6.25 µM; in the data set “H460 mouse tumor PK” (Mean), 6.68 µM. For the same compound, the concentration at 144 h in the data set “H460 mouse tumor PK” (Animal ID 1) amounted to 840 nM; in “H460 mouse tumor PK” (Animal ID 2), 3610 nM; in the data set “H460 mouse tumor PK” (Animal ID 3), 1570 nM; in the data set “H460 mouse tumor PK” (Mean) it was 2010 nM. Further, in data set [2], the “efficacy (tumor volumes) in H460 xenograft” value is “superior to Copanlisib alone or ganetespib alone”. For the same compound, in [3], the “efficacy (tumor growth inhibition) in LS174t xenograft” value is listed as “significant tumor growth inhibition”. In [3] (LS174t xenograft), the “efficacy compared with combination therapy of copanlisib and ganetespib” value was “worked much better than a combination therapy comprising copanlisib and ganetespib”. For the same compound, the “time remaining in the tumor xenograft and releasing active PI3K inhibitor payload” value in data set [4] was over 96 h. The “inhibition of PI3K shown by pAKT (S473)” value in the data set on pAKT (S473) is reported as “significant reduction of pAKT (S473)”. Moreover, the “tumor growth inhibition compared to Copanlisib” value in data set [5] and in [6] was “statistically significant increase in tumor growth inhibition” throughout. Also, the “PI3K enzyme inhibition compared with payload” value with PI3K is listed as “much less active than its PI3K enzyme inhibitor payload”. Moreover, the “glucose concentration after dosing” value in data set [7] is “lower glucose concentrations than mice treated with the PI3K inhibitor payload”.
The term Papp A→B denotes the apparent permeability from the apical to the basolateral side of a cell layer. What is called Papp B→A is how fast a substance crosses the layer from the basolateral side. In turn, `COc1c(OCCCN2CCNCC2)ccc2c1N=C(NC(=O)c1cnc(N)nc1)N1CCN=C21` [Compound 27A] had a Papp A→B in data set [8] (Caco-2, A to B direction) of 0.0032 ×10⁻⁶ cm/s. The compound also came in with a Papp B→A in [8] (Caco-2, B to A direction) of 0.0162 ×10⁻⁶ cm/s. The permeability in words entry in the data set with Caco-2 cells is “very low permeability”.
